# Measurements taken from ChEMBL document CHEMBL2094269, “WEHI/Eskitis Trypanosoma b. brucei screening data”.
# Where “and” joins values, the source holds several entries; their conditions need not be identical. Equal entries are not always repeated.
# System: Trypanosoma brucei brucei
# Test: microbe, parasite or virus in culture
# Format: functional, organism-based, STIB 795
# Settings: not given
row,Compound,IC50
1,CCN1CCS/C1=C\C=C\C1=[N+](CC)CCS1,0.39 µM and 0.092 µM
2,Cc1ccccc1-c1nnnn1C1CC(=O)C2OCC1O2 (configuration not stated),4.75 µM
3,CCN1/C(=C/C2=CC(=O)CC(C)(C)C2)Sc2ccccc21,5.54 µM
4,Cn1c(-c2ccco2)nn(C2CC(=O)C3OCC2O3)c1=S (configuration not stated),3.25 µM
5,Cc1c(C)n(CC(O)CNCc2ccccc2)c2ccccc12 (configuration not stated),7.63 µM
6,O=C1CC(n2nnn(C3CCCCC3)c2=S)C2COC1O2 (configuration not stated),5.11 µM and 1.33 µM
7,CCN(CC)c1ccc(CNCCc2c(C)[nH]c3ccccc23)cc1,3.4 µM
8,Cc1ccc(OCc2nn(C3CC(=O)C4OCC3O4)c(=S)n2C)cc1C (configuration not stated),4.62 µM
9,COc1ccc(-c2nn(C3CC(=O)C4OCC3O4)c(=S)n2C)cc1OC (configuration not stated),5.08 µM
10,Cc1cc2cc3c(cc2c(C)n1)c1ccccc1n3C,4.73 µM
11,CN(C)c1ccc(/C=C2\SC(=N)N(c3nccs3)C2=O)cc1,6.09 µM and 15.5 µM

# Same assay, conditions: Trypanosoma brucei, STIB 795
row,Compound,IC50
1,O=c1cc(-c2ccccc2)c2ccc(O)c(O)c2o1,> 10.4 µM
2,Cc1cccc(C(=N)NOC(=O)c2ccc3c(c2)OCO3)c1,> 10.4 µM
3,Cc1cc(N)n2ncc(-c3ccc(Cl)cc3)c2n1,> 10.4 µM
4,CC(C)COCc1ccc(O)c2ncccc12,> 10.4 µM
5,CCn1c(C)cc(=S)c2ccccc21,> 10.4 µM
6,CCCCOc1ccc(C(=O)NNC(=S)NC(=O)CC)cc1,> 10.4 µM
7,Cc1ccc(Cl)cc1N1CCN(CCN)CC1,> 10.4 µM
8,Cc1ccc(C(=N)NOC(=O)c2ccco2)cc1,> 10.4 µM
9,COc1ccc(Nc2nccc(-c3cccc(N)c3)n2)cc1,> 10.4 µM
10,CCC(=O)Nc1nc2ccccc2n1Cc1ccccc1C,> 10.4 µM
11,Oc1ccc(CNc2ccccc2F)c2cccnc12,> 10.4 µM
12,O=C1C(C2=C(O)c3ccccc3C2=O)=Nc2ccccc21,> 10.4 µM
13,Cc1ccc(C(=N)NOC(=O)c2cccs2)cc1,> 10.4 µM
14,COc1ccc(NC2=NC(=O)C(CO)(CO)S2)cc1,> 10.4 µM
15,Cc1occc1C(=O)O/N=C(\N)c1ccc(Cl)cc1,> 10.4 µM
16,Cc1ccc(C(CC(=O)c2ccco2)SCCO)cc1 (configuration not stated),> 10.4 µM
17,CCC(=O)c1coc2ccc(O)cc12,> 10.4 µM
18,O=C(NO)c1ccccc1C(F)(F)F,> 10.4 µM
19,N=C(NOC(=O)c1cccc(Cl)c1)c1cccnc1,> 10.4 µM
20,N=C(NOC(=O)C12CC3CC(CC(C3)C1)C2)c1cccnc1,> 10.4 µM
21,NC(CCCCc1ccccc1)c1cccc2ccccc12 (configuration not stated),> 10.4 µM
22,N=C(N)Nc1nc(-c2ccccc2)c2cc(Cl)ccc2n1,> 10.4 µM

row,Compound,IC50
1,CN(C)CC(C(=O)c1ccccc1)c1ccccc1 (configuration not stated),> 10.4 µM
2,O=NC1=C(c2c(O)[nH]c3ccccc23)CCCC1,> 10.4 µM
3,CC1CC(NC2CCCCC2)=Nc2ccccc2N1Cc1ccccc1 (configuration not stated),> 10.4 µM
4,Cn1c(=O)cc(NNc2ccccc2)[nH]c1=O,> 10.4 µM
5,CCn1nc(-c2ccc(OC)cc2)nc2c(=O)n(C)c(=O)nc1-2,> 10.4 µM
6,COc1cccc(Nc2nc(N)c(C(=O)c3ccccc3F)s2)c1,> 10.4 µM
7,O=C(CSc1nc2[nH]ncc2c(=O)n1-c1ccccc1)Nc1nccs1,> 10.4 µM
8,CCOC(=O)COC1=C(c2ccccc2)C(=O)c2ccccc2C1=O,> 10.4 µM
9,Cn1nc(-c2cccs2)nc2c(=O)n(C)c(=O)nc1-2,> 10.4 µM
10,C=C1N(CCCCN2C(=C)C(C)(C)c3ccccc32)c2ccccc2C1(C)C,> 10.4 µM
11,Cc1ccccc1C(=O)/C(C#N)=N/Nc1c(C)n(C)n(-c2ccccc2)c1=O,> 10.4 µM
12,O=C(N/N=C/c1ccc(O)c2ncccc12)c1ccco1,> 10.4 µM
13,O=c1c2ccccc2nc(SCc2cccnc2)n1Cc1ccco1,> 10.4 µM
14,CC(=O)N1/C(=C/c2ccncc2)C(=O)c2ccccc21,> 10.4 µM
15,CN(C)CCC1=Cc2cc(Cl)ccc2Sc2ccccc21,> 10.4 µM
16,Cc1ccc2[nH]c3c(c2c1)CCCC3NCCCOc1ccc(F)cc1 (configuration not stated),> 10.4 µM
17,CCN(CC)c1ccc(N)c(C)c1,> 10.4 µM
18,N=C1C=Cc2ccc(N)c3cccc1c23,> 10.4 µM
19,Cc1ncc(C)c2c1[nH]c1ccccc12,> 10.4 µM
20,CCc1no[c+](-c2ccccc2O)n1C,> 10.4 µM
21,Clc1nn2nnnc2c2ccccc12,> 10.4 µM
22,CC1CCc2nc3ccccc3c(N)c2C1 (configuration not stated),> 10.4 µM

row,Compound,IC50
1,CCc1c(C)nc(SCC#N)c(C#N)c1C,> 10.4 µM
2,CC1=C(C)C(=O)C(c2cccs2)=C(C)C1=O,> 10.4 µM
3,Oc1cccc2ccc(Nc3ccccc3)nc12,> 10.4 µM
4,NC(=S)N/N=C/c1sc(=O)[nH]c1Cl,> 10.4 µM
5,O=C1/C(=N\c2ccccc2)Sc2ccccc21,> 10.4 µM
6,CNc1nsc(C(=O)c2ccc(C)cc2)c1N,> 10.4 µM
7,ON=C(/C=C/c1ccccc1)/C=C/c1ccccc1,> 10.4 µM
8,CC1=C(C#N)C(C)C2=C(c3ccccc3C2=O)N1C (configuration not stated),> 10.4 µM
9,CC(=O)c1ccc2c(c1)[nH]c1cc(C(C)=O)ccc12,> 10.4 µM
10,Cc1ccccc1C(=O)O/N=C(\N)c1ccccn1,> 10.4 µM
11,Oc1ccc2ccccc2c1/N=N/c1nccs1,> 10.4 µM
12,O=C1C(=O)N(CO)c2ccc(Br)cc21,> 10.4 µM
13,CCn1c(-c2ccccc2Cl)nc2ccccc21,> 10.4 µM
14,N/C(=N\OC(=O)c1ccccc1F)c1ccccc1,> 10.4 µM
15,N/C(=N\OC(=O)c1ccc(F)cc1)c1cccnc1,> 10.4 µM
16,CCC(=O)NCCc1nc(-c2ccccc2)cs1,> 10.4 µM
17,O=C(/C=C/n1c(=O)oc2ccccc21)c1ccccc1,> 10.4 µM
18,ON=C1C=CC(=NNc2nncc3ccccc23)C=C1,> 10.4 µM
19,O=C(/C=C/c1ccc(F)cc1)n1cnc2ccccc21,> 10.4 µM
20,Cc1c(-c2cccc(O)c2)ccc2nc(N)nc(N)c12,> 10.4 µM
21,O=C(Nc1cc(Cl)cc(Cl)c1)c1ccccn1,> 10.4 µM
22,Cc1ccc(OCCn2c(N)nc3ccccc32)cc1,> 10.4 µM

row,Compound,IC50
1,Cc1c(-c2ccc(O)c(O)c2)oc2ccccc2c1=O,> 10.4 µM
2,Cc1ccc(O)c(C(=O)CC(=O)c2ccccc2C)c1,> 10.4 µM
3,O=C1c2ccccc2C2=NS(=O)(=O)c3cccc1c32,> 10.4 µM
4,O=C(CCN1CCC(c2ccccc2)C1)c1ccco1 (configuration not stated),> 10.4 µM
5,CCN(CC)c1cc(C)nc(NCc2ccccc2)n1,> 10.4 µM
6,COc1ccc(C(=O)O/N=C(\N)c2cccnc2)cc1,> 10.4 µM
7,COc1ccc(/C(C)=N\Nc2nnc(C)c(O)n2)cc1,> 10.4 µM
8,COc1ccc(O)c(/C=N/NC(=O)c2nonc2C)c1,> 10.4 µM
9,O=c1oc2ccccc2n1Cc1c(F)cccc1Cl,> 10.4 µM
10,COc1ccc(/N=N/c2ccc(O)c3ncccc23)cc1,> 10.4 µM
11,CCCC(CCC)C(=O)Nc1ccc(O)cc1C(=O)O,> 10.4 µM
12,O=c1[nH]c(NCCCO)nc2sc3c(c12)CCCC3,> 10.4 µM
13,Cc1cc(=O)[nH]c(Nc2ccc(Br)cc2)n1,> 10.4 µM
14,C(=N\Nc1nc(-c2ccccc2)cs1)/c1ccncc1,> 10.4 µM
15,Oc1ccccc1/C=N/Nc1ncc(Cl)cc1Cl,> 10.4 µM
16,O=C(Cn1ncc(Cl)c(Cl)c1=O)c1ccccc1,> 10.4 µM
17,Cc1cc(C)c(CCCc2c(C)nc(N)nc2N)cc1C,> 10.4 µM
18,C=CCc1cccc(/C=N/NC(=O)c2nonc2C)c1O,> 10.4 µM
19,Cc1ccccc1-c1nnnn1C1CC(=O)C2OCC1O2 (configuration not stated),4.58 µM
20,c1ccc(Oc2cccc(-c3nc4ccccc4[nH]3)c2)cc1,> 10.4 µM
21,Cc1cnc(NC(=O)c2ccc(Cl)c(Cl)c2)s1,> 10.4 µM
22,CCOC(=O)Cc1ccc(NCc2ccc(F)cc2)cc1,> 10.4 µM

row,Compound,IC50
1,COc1ccc(/C(N)=N/OC(=O)c2cccc(F)c2)cc1,> 10.4 µM
2,CCC(=O)c1ccc(Oc2cc(=O)n(C)c(=O)n2C)cc1,> 10.4 µM
3,C/C(=N\NC(=O)c1cccc(Cl)c1)c1ccccc1O,> 10.4 µM
4,Oc1ccccc1/C=N\NC(=S)Nc1ccc(F)cc1,> 10.4 µM
5,CNC(c1ccccc1)C1c2cccc3cccc(c23)C1O (configuration not stated),> 10.4 µM
6,Cc1ccc(C(=O)O/N=C(\N)c2cccnc2)cc1Cl,> 10.4 µM
7,Cc1cccc(/C=N\Nc2nncc(-c3ccccc3)n2)n1,> 10.4 µM
8,Cc1ccc(Nc2nn3nnnc3c3ccccc23)c(C)c1,> 10.4 µM
9,Nc1ncc(CCc2cccc(-c3ccccc3)c2)c(N)n1,> 10.4 µM
10,CC(C)=CCC1(C)C(=O)N(c2ccccc2)c2ccccc21 (configuration not stated),> 10.4 µM
11,C=CCN1C(=O)/C(=N/NC(=S)SC)c2ccccc21,> 10.4 µM
12,CCCCN(CCCC)CCC12CC3CC(CC(C3)C1)C2,> 10.4 µM
13,CC1=C/C(=N\OC(=O)c2ccccc2Cl)CC(C)(C)C1,> 10.4 µM
14,CC(=O)c1nc2ccccc2n1CC(=O)c1ccc(C)cc1,> 10.4 µM
15,CCc1ccccc1Nc1cc(C)nc2c(OC)cccc12,> 10.4 µM
16,CCCCC(O)(CCCC)C(=O)NNc1ccc(C)cc1,> 10.4 µM
17,COc1ccccc1NC(=O)c1cc2ccccc2cc1O,> 10.4 µM
18,CC(C)(C)C(=O)NN=c1c2ccccc2[nH]c2ccccc12,> 10.4 µM
19,O=C1/C(=C2\NCC(c3ccccc3)O2)Sc2ccccc21 (configuration not stated),> 10.4 µM
20,S=C1N(c2ccccc2)c2ccccc2C12CCOCC2,> 10.4 µM
21,CN(C)CCCC1=Cc2ccccc2Sc2ccccc21,> 10.4 µM
22,Fc1ccccc1Cn1c(C2CCCO2)nc2ccccc21 (configuration not stated),> 10.4 µM

row,Compound,IC50
1,O=c1c(-c2ccccc2)c(-c2ccccc2)[nH]c2ccccc12,> 10.4 µM
2,Oc1ccc(/C=N/N2CCN(c3ccccc3)CC2)cc1O,> 10.4 µM
3,COc1ccc(/C(N)=N/OC(=O)c2ccc(C)c(C)c2)cc1,> 10.4 µM
4,CC(C)(C)c1ccc(C(=O)NNC(=O)c2cnccn2)cc1,> 10.4 µM
5,O=c1c(Cl)c(Cl)cnn1C12CC3CC(CC(C3)C1)C2,> 10.4 µM
6,Cc1c(-c2noc(C(=O)NC(C)C)n2)oc2c(C)cccc12,> 10.4 µM
7,CCOC(=O)c1c(C)[nH]c(=S)c(C#N)c1-c1ccncc1,> 10.4 µM
8,c1ccc(Nc2n[n+](-c3ccccc3)nc3ccccc23)cc1,> 10.4 µM
9,CCN1/C(=C/C2=CC(=O)CC(C)(C)C2)Sc2ccccc21,5.4 µM
10,CC(C)CCn1c(C(C)N2CCCCC2)nc2ccccc21 (configuration not stated),> 10.4 µM
11,CCC(=O)c1sc(Nc2ccc(F)c(Cl)c2)nc1N,> 10.4 µM
12,O=C(CCN1CCCCC1)Nc1ccc(C2CCCC2)cc1,> 10.4 µM
13,Cn1c(-c2ccco2)nn(C2CC(=O)C3OCC2O3)c1=S (configuration not stated),5.5 µM
14,Cc1c(C)n(CC(O)CNCc2ccccc2)c2ccccc12 (configuration not stated),5.49 µM
15,CCN(CC)c1ccc(CNCCc2c(C)[nH]c3ccccc23)cc1,5.01 µM
16,Cc1ccc(OCc2nn(C3CC(=O)C4OCC3O4)c(=S)n2C)cc1C (configuration not stated),4.31 µM
17,COc1ccc(-c2nn(C3CC(=O)C4OCC3O4)c(=S)n2C)cc1OC (configuration not stated),4.53 µM
18,Nc1ccccc1S(=O)(=O)Nc1cccc2cccnc12,> 10.4 µM
19,Cc1cc2cc3c(cc2c(C)n1)c1ccccc1n3C,5.19 µM
20,CCCCNc1ccc2cccc(O)c2n1,> 10.4 µM
21,C=CCc1cccc(/C=N/NC(=O)c2cccs2)c1O,> 10.4 µM
